Results on six compounds are retold here after BindingDB's records for doi:10.1016/j.bmc.2019.115161 (Iwate University, 2019).

Assay [1] in a line: Inhibition of trypsin-like activity of beta2 subunit of 20S proteasome in human erythrocytes using Boc-LRR-MCA as substrate preincubated with enzyme for 10 mins followed by substrate addition and measured after 3 hrs by fluorescence spectrophotometric analysis.
Assay [2] can be described thus: Inhibition of caspase-like activity of beta1 subunit of 20S proteasome in human erythrocytes using Z-LLE-MCA as substrate preincubated with enzyme for 10 mins followed by substrate addition and measured after 3 hrs by fluorescence spectrophotometeric analysis.

Some results are limits rather than exact numbers.

For `C=C1CC[C@H]2C(C)(C)[C@H](O)CC[C@]2(C)[C@H]1C[C@]12O[C@H]1[C@H](O)C(CO)=CC2=O`, the concentration for half-maximal inhibition (IC50) in assay [1] and in assay [2] was more than 100 µM each time.

For `C=C1CC[C@H]2C(C)(C)[C@H](O)CC[C@]2(C)[C@H]1C[C@]12O[C@H]1C(=O)C(COC(=O)[C@H](O)[C@H](C)O)=CC2=O`, the figures for the IC50 in assay [1] and in assay [2] were 27.9 µM and 5.2 µM, respectively.

In the case of `C=C1CC[C@H]2C(C)(C)[C@H](O)CC[C@]2(C)[C@H]1C[C@]12O[C@H]1[C@H](O)C(COC(=O)[C@H](O)[C@H](C)O)=CC2=O`, the IC50 in assay [1] was more than 100 µM; in assay [2], 87.3 µM.

Consider `C=C1CC[C@H]2C(C)(C)[C@H](O)CC[C@]2(C)[C@H]1C[C@]12O[C@H]1[C@H](O)C(COC(=O)C[C@H](C)O)=CC2=O`, for which the IC50 in assay [1] is more than 100 µM; in assay [2] it was 30.1 µM.

For `C=C1CC[C@H]2C(C)(C)[C@H](O)CC[C@]2(C)[C@H]1C[C@]12O[C@H]1C(=O)C(CO)=CC2=O`, the IC50 was determined as 76.1 µM in assay [1] and 17.8 µM in assay [2].

On to `C=C1CC[C@H]2C(C)(C)[C@H](O)CC[C@]2(C)[C@H]1C[C@]12O[C@H]1C(=O)C(COC(=O)C[C@H](C)O)=CC2=O`, for which the results for the half-maximal inhibitory concentration (IC50) in assay [1] and in assay [2] were 22.5 µM and 3.9 µM, respectively.

The term IC50 denotes the concentration at which inhibition is half-maximal.
